Source: ChEMBL document CHEMBL3044700, “Molecular modeling and protection against pentylenetetrazole-induced seizure of new 1,4-dihydropyridines containing 5(4)-imidazolyl substituent” (Med Chem Res, 2012)
The source made the active and inactive calls. The calls are words filed in the database; no cut-off is given here.

Assays:
Mus musculus [1] = experiment: Anticonvulsant activity in Mus musculus NMRI (mouse) assessed as protection against pentylenetetrazole-induced seizures at 5 to 20 mg/kg, ip administered 30 min prior to pentylenetetrazole induction relative to vehicle-treated control; format: functional, organism-based
Mus musculus [2] = experiment: Anticonvulsant activity in Mus musculus NMRI (mouse) assessed as protection against pentylenetetrazole-induced seizures at 20 mg/kg, ip administered 30 min prior to pentylenetetrazole induction relative to vehicle-treated control; format: functional, organism-based; set-up: dose 20 mg/kg

Structure (SMILES)	Activity (Mus musculus [1])	Activity (Mus musculus [2])
CCOC(=O)C1=C(C)NC(C)=C(C(=O)OCCc2ccccc2)C1c1nc(CC)[nH]c1Cl (stereo not drawn)	Active	–
CCc1nc(C2C(C(=O)OC)=C(C)NC(C)=C2C(=O)OCCc2ccccc2)c(Cl)[nH]1 (stereo not drawn)	Active	–
CC1=C(C(=O)OCCCc2ccccc2)C(c2nc[nH]c2Cl)C(C(=O)OCCCc2ccccc2)=C(C)N1	Active	–
CC1=C(C(=O)OCc2ccccc2)C(c2nc[nH]c2Cl)C(C(=O)OCc2ccccc2)=C(C)N1	Active	–
CCc1nc(C2C(C(=O)OCCc3ccccc3)=C(C)NC(C)=C2C(=O)OCCc2ccccc2)c(Cl)[nH]1	Active	–
CCc1nc(C2C(C(=O)OCc3ccccc3)=C(C)NC(C)=C2C(=O)OCc2ccccc2)c(Cl)[nH]1	Active	–
CC1=C(C(=O)OCCc2ccccc2)C(c2nc[nH]c2Cl)C(C(=O)OCCc2ccccc2)=C(C)N1	Active	–
COC(=O)C1=C(C)NC(C)=C(C(=O)OC)C1c1ccccc1[N+](=O)[O-]	–	Active
